Assays:
[1] = Effect on human FOXM1a mRNA splicing expressed in human SMA-derived fibroblasts by RT-qPCR analysis; assay type: ADME
[2] = Effect on FOXM1b/c mRNA splicing in human induced pluripotent stem cells by RT-qPCR analysis; assay type: ADME; details: Homo sapiens
hERG (KCNH2) = hERG (KCNH2) (Homo sapiens, UniProt Q12809); test: Inhibition of human ERG at 37 degC; details: human
[3] = Cardiotoxicity in cynomolgus monkey assessed as prolongation of QTc interval time; assay type: toxicity, Macaca fascicularis
[4] = Efflux ratio of permeability in human SMA-derived fibroblasts; assay type: ADME, cell-based, Fibroblast; details: not told
[5] = Lipophilicity, log D of the compound at pH 7.4; assay type: physicochemical; details: buffer
[6] = Fraction unbound in human plasma; assay type: ADME, cell-free
[7] = Fraction unbound in mouse plasma; assay type: ADME, cell-free
[8] = Clearance in rat at 1.9 mg/kg, iv administered as single dose; assay type: ADME, organism-based; details: in vivo
[9] = Volume of distribution at steady state in rat at 1.9 mg/kg, iv administered as single dose; assay type: ADME, organism-based; details: in vivo, read-out: Vdss
[10] = Half life in rat at 5.5 mg/kg, po administered as single dose; assay type: ADME, organism-based; details: in vivo
[11] = Oral bioavailability in rat at 5.5 mg/kg administered as single dose; assay type: ADME, organism-based; details: in vivo
[12] = Half life in cynomolgus monkey at 0.5 mg/kg, po administered as single dose; assay type: ADME, organism-based, Macaca fascicularis; details: in vivo
[13] = Oral bioavailability in cynomolgus monkey at 0.5 mg/kg administered as single dose; assay type: ADME, organism-based, Macaca fascicularis; details: in vivo
Mus musculus [14] = test: In-vivo stabilization of SMN2 mRNA in SMA adult C/C allele mouse model assessed as increase in SMN protein levels in brain at 1 mg/kg, po dosed once daily for 10 days relative to control; assay type: functional
Mus musculus [15] = test: In-vivo stabilization of SMN2 mRNA in SMA adult C/C allele mouse model assessed as increase in SMN protein levels in brain at 3 mg/kg, po dosed once daily for 10 days relative to control; assay type: functional
Mus musculus [16] = test: In-vivo stabilization of SMN2 mRNA in SMA neonatal delta7 mouse model assessed as increase in SMN protein levels in brain at 0.1 mg/kg, ip dosed once daily starting from postnatal day 3 to postnatal day 9 relative to control; assay type: functional
Mus musculus [17] = test: In-vivo stabilization of SMN2 mRNA in SMA neonatal delta7 mouse model assessed as increase in SMN protein levels in brain at 0.3 mg/kg, ip dosed once daily starting from postnatal day 3 to postnatal day 9 relative to control; assay type: functional
Mus musculus [18] = test: In-vivo stabilization of SMN2 mRNA in SMA neonatal delta7 mouse model assessed as increase in SMN protein levels in brain at 1 mg/kg, ip dosed once daily starting from postnatal day 3 to postnatal day 9 relative to control; assay type: functional
Mus musculus [19] = test: In-vivo stabilization of SMN2 mRNA in SMA neonatal delta7 mouse model assessed as increase in SMN protein levels in quadriceps at 0.1 mg/kg, ip dosed once daily starting from postnatal day 3 to postnatal day 9 relative to control; assay type: functional
Mus musculus [20] = test: In-vivo stabilization of SMN2 mRNA in SMA neonatal delta7 mouse model assessed as increase in SMN protein levels in quadriceps at 0.3 mg/kg, ip dosed once daily starting from postnatal day 3 to postnatal day 9 relative to control; assay type: functional
Mus musculus [21] = test: In-vivo stabilization of SMN2 mRNA in SMA neonatal delta7 mouse model assessed as increase in SMN protein levels in quadriceps at 1 mg/kg, ip dosed once daily starting from postnatal day 3 to postnatal day 9 relative to control; assay type: functional
Mus musculus [22] = test: In-vivo stabilization SMN2 mRNA in SMA delta7 mouse assessed as increase in mean survival day at 0.1 mg/kg, ip dosed daily starting from postnatal day 3 to postnatal day 23 followed by po dosing 0.3 mg/kg per day via gavage (reference value: 10.5 days); assay type: functional
Mus musculus [23] = test: In-vivo stabilization SMN2 mRNA in SMA delta7 ip dosed mouse assessed as increase in number of vGlut1 inputs in L3 to L5 spinal cord dosed daily starting from postnatal day 3 to postnatal day 14 by immunohistochemistry; assay type: functional, organism-based
Mus musculus [24] = test: In-vivo stabilization SMN2 mRNA in SMA delta7 ip dosed mouse assessed as increase in percentage of fully innervated NMJs dosed daily starting from postnatal day 3 to postnatal day 14 by immunohistochemistry; assay type: functional, organism-based
Mus musculus [25] = test: In-vivo stabilization SMN2 mRNA in SMA delta7 ip dosed mouse assessed as increased muscle size in the EDL dosed daily starting from postnatal day 3 to postnatal day 14 by immunohistochemistry; assay type: functional, organism-based
NIH3T3 = test: Phototoxicity in mouse 3T3 cells assessed as decrease in cell viability at 9 uM in presence of UV light by neutral red uptake assay; assay type: cell-based; details: nih3t3, 9 µM
[26] = Toxicity in po dosed rat assessed phospholipidosis administered via gavage up to 26 weeks; assay type: organism-based; details: in vivo, 4368 h
[27] = Toxicity in po dosed cynomolgus monkey assessed phospholipidosis administered via gavage up to 39 weeks; assay type: organism-based, Macaca fascicularis; details: in vivo, 6552 h
Mus musculus [28] = test: In-vivo stabilization of SMN2 mRNA in SMA neonatal delta7 mouse model assessed as increase in SMN protein levels in brain at 10 mg/kg, ip dosed once daily starting from postnatal day 3 to postnatal day 9 relative to control; assay type: functional
[29] = biological target: Survival motor neuron protein (Homo sapiens) (UniProt Q16637); test: Activation of SMN protein in human SMA-derived fibroblasts after 48 hrs by HTRF assay
[30] = Stabilization of human MADD mRNA splicing expressed in human SMA-derived fibroblasts at 121 to 605 nM by RT-qPCR analysis; assay type: ADME; details: 0.605 µM
[31] = Stabilization of human APLP2 mRNA splicing expressed in human SMA-derived fibroblasts at 121 to 605 nM by RT-qPCR analysis; assay type: ADME; details: 0.605 µM
[32] = Stabilization of human […] mRNA splicing expressed in human SMA-derived fibroblasts at 121 to 605 nM by RT-qPCR analysis; assay type: ADME; details: 0.605 µM
[33] = Stabilization of human STRN3 mRNA splicing expressed in human SMA-derived fibroblasts at 121 to 605 nM by RT-qPCR analysis; assay type: ADME; details: 0.605 µM
[34] = Chronic toxicity in retina of po dosed cynomolgus monkey assessed as multifocal peripheral retina degeneration after 39 weeks by OCT analysis; assay type: organism-based, Macaca fascicularis; details: in vivo, 6552 h
[35] = Chronic toxicity in retina of po dosed cynomolgus monkey assessed as formation of microcystic spaces in the inner retinal layers after 39 weeks by OCT analysis; assay type: organism-based, Macaca fascicularis; details: in vivo, 6552 h
[36] = Chronic toxicity in retina of po dosed cynomolgus monkey assessed as formation of scotopic depressed B-waves after 39 weeks by ERG analysis; assay type: organism-based, Macaca fascicularis; details: in vivo, 6552 h
[37] = Chronic toxicity in retina of po dosed cynomolgus monkey assessed as effect on outer nuclear layers after 39 weeks by histological analysis; assay type: organism-based, Macaca fascicularis; details: in vivo, 6552 h
[38] = Chronic toxicity in retina of po dosed cynomolgus monkey assessed as effect on photo-receptor layers after 39 weeks by histological analysis; assay type: organism-based, Macaca fascicularis; details: in vivo, 6552 h
[39] = Chronic toxicity in retina of po dosed cynomolgus monkey assessed as RPE hypertrophy 39 weeks by histological analysis; assay type: organism-based, Macaca fascicularis; details: in vivo, 6552 h

Chain of Survival motor neuron protein (Homo sapiens) (Q16637 whole entry): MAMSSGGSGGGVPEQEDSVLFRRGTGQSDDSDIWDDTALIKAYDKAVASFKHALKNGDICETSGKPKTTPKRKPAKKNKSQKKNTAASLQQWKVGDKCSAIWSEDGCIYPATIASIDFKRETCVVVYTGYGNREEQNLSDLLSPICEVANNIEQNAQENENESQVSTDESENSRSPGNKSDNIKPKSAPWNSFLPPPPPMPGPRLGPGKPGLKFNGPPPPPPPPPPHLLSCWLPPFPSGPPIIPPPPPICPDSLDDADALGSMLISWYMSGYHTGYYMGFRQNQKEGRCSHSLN
Chain of hERG (KCNH2) (Q12809 whole entry): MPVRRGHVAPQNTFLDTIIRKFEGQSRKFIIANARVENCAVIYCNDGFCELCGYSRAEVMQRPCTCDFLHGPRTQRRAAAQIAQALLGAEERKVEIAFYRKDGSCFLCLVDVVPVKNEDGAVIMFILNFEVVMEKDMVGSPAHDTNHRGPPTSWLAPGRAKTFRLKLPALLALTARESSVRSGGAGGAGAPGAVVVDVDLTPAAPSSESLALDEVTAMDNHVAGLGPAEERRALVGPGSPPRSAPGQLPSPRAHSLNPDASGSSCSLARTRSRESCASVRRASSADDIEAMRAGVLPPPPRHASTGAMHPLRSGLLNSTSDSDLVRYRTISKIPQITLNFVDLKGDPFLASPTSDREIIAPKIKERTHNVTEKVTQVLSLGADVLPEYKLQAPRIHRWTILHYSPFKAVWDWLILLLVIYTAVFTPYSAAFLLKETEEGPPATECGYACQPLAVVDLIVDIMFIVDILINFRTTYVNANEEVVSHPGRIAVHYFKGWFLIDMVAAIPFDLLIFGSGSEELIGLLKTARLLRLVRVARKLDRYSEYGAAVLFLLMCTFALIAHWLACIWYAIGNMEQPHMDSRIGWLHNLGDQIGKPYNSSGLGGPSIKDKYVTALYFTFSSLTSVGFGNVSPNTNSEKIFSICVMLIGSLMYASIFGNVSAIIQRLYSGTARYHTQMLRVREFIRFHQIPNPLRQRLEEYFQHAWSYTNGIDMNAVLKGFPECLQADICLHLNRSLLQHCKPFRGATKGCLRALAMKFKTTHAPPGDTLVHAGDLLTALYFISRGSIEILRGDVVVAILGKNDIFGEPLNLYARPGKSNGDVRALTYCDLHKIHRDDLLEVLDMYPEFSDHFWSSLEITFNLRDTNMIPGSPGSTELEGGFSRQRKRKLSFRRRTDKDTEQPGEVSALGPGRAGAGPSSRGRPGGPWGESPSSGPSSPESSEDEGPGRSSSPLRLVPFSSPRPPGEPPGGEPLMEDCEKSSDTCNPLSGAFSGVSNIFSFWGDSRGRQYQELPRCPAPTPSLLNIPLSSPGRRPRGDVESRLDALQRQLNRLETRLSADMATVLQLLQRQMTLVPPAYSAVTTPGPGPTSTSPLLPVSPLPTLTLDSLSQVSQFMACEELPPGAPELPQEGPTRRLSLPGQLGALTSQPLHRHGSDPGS

Compound: Cc1cn2nc(-c3cc(=O)n4cc(N5CCNC6(CC6)C5)ccc4n3)cc(C)c2n1
- EC50 [1]: 0.067 µM
- IC50 [2]: 0.113 µM
- IC20 (hERG (KCNH2)): > 5 µM
- Activity [3]: Non-Toxic
- efflux ratio [4]: 2.2
- logD [5]: 2.5
- fraction unbound [6]: 0.11
- fraction unbound [7]: 0.1
- clearance [8]: 0.534 L/h/kg
- Vd [9]: 3.1 L/kg
- half-life [10]: 6.4 h
- bioavailability [11]: 100%
- half-life [12]: 5.4 h
- bioavailability [13]: 43%
- Activity (Mus musculus [14]): 0%
- Activity (Mus musculus [15]): 17%
- Activity (Mus musculus [16]): 28%
- Activity (Mus musculus [17]): 90%
- Activity (Mus musculus [18]): 206%
- Activity (Mus musculus [19]): 32%
- Activity (Mus musculus [20]): 64%
- Activity (Mus musculus [21]): 210%
- MSD (Mus musculus [22]): 26 days
- Activity (Mus musculus [23]): Dose-dependent effect
- Activity (Mus musculus [24]): Dose-dependent effect
- Activity (Mus musculus [25]): Dose-dependent effect
- Activity (NIH3T3): Non-Toxic
- Activity [26]: Non-Toxic
- Activity [27]: Non-Toxic
- Activity (Mus musculus [28]): 202%
- EC1.5 [29]: 29 nM
- Activity [30]: Non-Toxic
- Activity [31]: Non-Toxic
- Activity [32]: Non-Toxic
- Activity [33]: Non-Toxic
- Activity [34]: Toxic
- Activity [35]: Toxic
- Activity [36]: Toxic
- Activity [37]: Toxic
- Activity [38]: Toxic
- Activity [39]: Toxic
- pKa (physchem): 6.8
